{
  "source": "paper PMC9901219",
  "about": "(European Journal of Medicinal Chemistry, 2023)",
  "tested_on": "F1G cells",
  "data": [
    {"smiles": "Cc1cccc2nc(CSC(=S)NCc3cccnc3)cn12", "note": "[Compound 1, (5-methylimidazo[1,2-a]pyridin-2-yl)methyl (pyridin-3-ylmethyl)carbamodithioate]", "values": [
      {"measurement": "cytotoxicity", "result": "without cytoxicity at the active doses"}
    ]}
  ]
}
